Assay results published in patent US20260028365A1 (BIOGEN MA INC., priority 2022, published 2026).
Counter-ions that a name gives are not always drawn.

How the values were obtained:
[1] = target: JH2 domain of human Tyk2 (Homo sapiens (Human), UniProt P29597); experiment: JH2 Biochemical Assay (TR-FRET probe displacement); assay type: binding; settings: JH2 domain of human Tyk2, TR-FRET probe displacement
[2] = target: Tyk2 (Homo sapiens (Human), UniProt P29597); experiment: pSTAT4 Cell Assay (MSD, NK92 cells); assay type: cell-based; settings: MSD
Tyk2, sequence (P29597 whole entry): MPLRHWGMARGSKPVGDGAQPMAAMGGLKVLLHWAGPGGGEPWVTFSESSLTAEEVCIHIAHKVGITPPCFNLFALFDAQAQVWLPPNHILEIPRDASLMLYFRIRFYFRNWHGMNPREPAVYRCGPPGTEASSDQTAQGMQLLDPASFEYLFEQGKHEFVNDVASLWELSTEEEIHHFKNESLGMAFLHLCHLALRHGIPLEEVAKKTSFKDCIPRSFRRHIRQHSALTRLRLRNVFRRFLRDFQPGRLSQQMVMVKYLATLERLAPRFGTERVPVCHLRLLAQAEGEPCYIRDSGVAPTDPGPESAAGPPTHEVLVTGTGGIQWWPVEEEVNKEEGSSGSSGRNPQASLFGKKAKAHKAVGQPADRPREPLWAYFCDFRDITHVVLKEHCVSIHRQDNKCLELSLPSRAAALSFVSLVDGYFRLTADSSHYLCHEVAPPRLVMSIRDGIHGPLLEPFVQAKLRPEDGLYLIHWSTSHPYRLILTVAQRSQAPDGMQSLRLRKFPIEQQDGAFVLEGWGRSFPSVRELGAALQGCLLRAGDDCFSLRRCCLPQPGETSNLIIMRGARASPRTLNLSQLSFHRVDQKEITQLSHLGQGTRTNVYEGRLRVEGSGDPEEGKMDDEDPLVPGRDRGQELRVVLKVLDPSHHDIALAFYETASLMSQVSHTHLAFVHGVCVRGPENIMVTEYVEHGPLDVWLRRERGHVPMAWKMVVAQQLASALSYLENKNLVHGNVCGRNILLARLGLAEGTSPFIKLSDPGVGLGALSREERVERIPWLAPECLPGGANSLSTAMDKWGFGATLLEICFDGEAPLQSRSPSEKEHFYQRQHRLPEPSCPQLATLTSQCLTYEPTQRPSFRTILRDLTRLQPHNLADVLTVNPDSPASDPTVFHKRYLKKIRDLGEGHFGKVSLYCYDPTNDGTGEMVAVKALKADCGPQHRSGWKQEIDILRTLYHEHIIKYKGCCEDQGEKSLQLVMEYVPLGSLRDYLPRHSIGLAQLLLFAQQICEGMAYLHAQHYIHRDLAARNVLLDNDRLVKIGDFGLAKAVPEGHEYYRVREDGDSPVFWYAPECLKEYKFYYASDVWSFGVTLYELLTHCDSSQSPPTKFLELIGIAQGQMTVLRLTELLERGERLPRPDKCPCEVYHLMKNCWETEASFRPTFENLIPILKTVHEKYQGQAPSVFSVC

JH2 domain of human Tyk2, sequence (P29597 575-876): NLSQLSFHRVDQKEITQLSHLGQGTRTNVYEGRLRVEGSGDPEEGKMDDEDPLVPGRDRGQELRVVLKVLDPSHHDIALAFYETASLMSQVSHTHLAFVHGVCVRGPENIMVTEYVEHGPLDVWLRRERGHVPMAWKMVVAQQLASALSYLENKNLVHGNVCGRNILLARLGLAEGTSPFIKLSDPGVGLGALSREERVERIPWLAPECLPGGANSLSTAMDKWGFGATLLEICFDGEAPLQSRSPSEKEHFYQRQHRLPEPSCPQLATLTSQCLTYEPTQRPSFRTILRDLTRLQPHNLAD

## CC(=O)Nc1cc(Nc2cc(C)nc(C(C)(F)F)n2)c(O[C@H]2C[C@@H](F)C2)cn1 [Example 412, N-(4-((2-(1,1-difluoroethyl)-6-methylpyrimidin-4-yl)amino)-5-((1s,3s)-3-fluorocyclobutoxy)pyridin-2-yl)acetamide]
[1]
  IC50: ≤ 10 nM
[2]
  IC50: 10 to 100 nM

## CCc1cc(Nc2cc(NC(C)=O)ncc2O[C@H]2C[C@@H](F)C2)nc(C(C)(F)F)n1 [Example 413, N-(4-((2-(1,1-difluoroethyl)-6-ethylpyrimidin-4-yl)amino)-5-((1s,3s)-3-fluorocyclobutoxy)pyridin-2-yl)acetamide]
[1]
  IC50: ≤ 10 nM
[2]
  IC50: ≤ 10 nM

## CC(=O)Nc1cc(Nc2cc(-c3cnn(C(C)C)c3)nc(C(C)(F)F)n2)c(O[C@H]2C[C@@H](F)C2)cn1 [Example 414, N-(4-((2-(1,1-difluoroethyl)-6-(1-isopropyl-1H-pyrazol-4-yl)pyrimidin-4-yl)amino)-5-((1s,3s)-3-fluorocyclobutoxy)pyridin-2-yl)acetamide]
[1]
  IC50: ≤ 10 nM
[2]
  IC50: ≤ 10 nM

## [2H]C([2H])([2H])Oc1cnc(NC(C)=O)cc1Nc1cc(OC2CC2)nc(C(C)(F)F)n1 [Example 415, N-(4-((6-cyclopropoxy-2-(1,1-difluoroethyl)pyrimidin-4-yl)amino)-5-(methoxy-d3)pyridin-2-yl)acetamide]
[1]
  IC50: ≤ 10 nM
[2]
  IC50: ≤ 10 nM

## COc1cnc(NC(C)=O)cc1Nc1cc(-c2cn[nH]c2)nc(C(C)(F)F)n1 [Example 416, N-(4-((2-(1,1-difluoroethyl)-6-(1H-pyrazol-4-yl)pyrimidin-4-yl)amino)-5-methoxypyridin-2-yl)acetamide]
[1]
  IC50: ≤ 10 nM
[2]
  IC50: 100 to 1000 nM

## CC(=O)Nc1cc(Nc2cc(C)nc(C(C)(F)F)n2)c(OCC2(F)CCCOC2)cn1 (centres unmarked) [Example 417, N-(4-((2-(1,1-difluoroethyl)-6-methylpyrimidin-4-yl)amino)-5-((3-fluorotetrahydro-2H-pyran-3-yl)methoxy)pyridin-2-yl)acetamide]
[1]
  IC50: ≤ 10 nM
[2]
  IC50: ≤ 10 nM

## CC(=O)Nc1cc(Nc2cc(C)nc(C(C)(F)F)n2)c(OCC2COCC(C)(C)O2)cn1 (centres unmarked) [Example 419, N-(4-((2-(1,1-difluoroethyl)-6-methylpyrimidin-4-yl)amino)-5-((6,6-dimethyl-1,4-dioxan-2-yl)methoxy)pyridin-2-yl)acetamide]
[1]
  IC50: ≤ 10 nM
[2]
  IC50: ≤ 10 nM

## CC(=O)Nc1cc(Nc2cc(C)nc(C(C)(F)F)n2)c(OCC(F)C2CCC2)cn1 (centres unmarked) [Example 420, N-(5-(2-cyclobutyl-2-fluoroethoxy)-4-((2-(1,1-difluoroethyl)-6-methylpyrimidin-4-yl)amino)pyridin-2-yl)acetamide]
[1]
  IC50: ≤ 10 nM
[2]
  IC50: 10 to 100 nM

## CC(=O)Nc1cc(Nc2cc(C)nc(C(C)(F)F)n2)c(OC[C@]23CO[C@](CF)(C2)C3)cn1 [Example 421, N-(4-((2-(1,1-difluoroethyl)-6-methylpyrimidin-4-yl)amino)-5-(((1r,4s)-1-(fluoromethyl)-2-oxabicyclo[2.1.1]hexan-4-yl)methoxy)pyridin-2-yl)acetamide]
[1]
  IC50: ≤ 10 nM
[2]
  IC50: 10 to 100 nM

## CC(=O)Nc1cc(Nc2cc(C)nc(C(C)(F)F)n2)c(OCC2CC23CC3)cn1 (centres unmarked) [Example 422, N-(4-((2-(1,1-difluoroethyl)-6-methylpyrimidin-4-yl)amino)-5-(spiro[2.2]pentan-1-ylmethoxy)pyridin-2-yl)acetamide]
[1]
  IC50: ≤ 10 nM
[2]
  IC50: 10 to 100 nM

## CC(=O)Nc1cc(Nc2cc(C)nc(C(C)(F)F)n2)c(OC[C@]23CC[C@@H](CC2)O3)cn1 [Example 423, N-(5-(((1r,4r)-7-oxabicyclo[2.2.1]heptan-1-yl)methoxy)-4-((2-(1,1-difluoroethyl)-6-methylpyrimidin-4-yl)amino)pyridin-2-yl)acetamide]
[1]
  IC50: ≤ 10 nM
[2]
  IC50: 10 to 100 nM

## CCC(COc1cnc(NC(C)=O)cc1Nc1cc(C)nc(C(C)(F)F)n1)OC (centres unmarked) [Example 424, N-(4-((2-(1,1-difluoroethyl)-6-methylpyrimidin-4-yl)amino)-5-(2-methoxybutoxy)pyridin-2-yl)acetamide]
[1]
  IC50: ≤ 10 nM
[2]
  IC50: 10 to 100 nM

## CC(=O)Nc1cc(Nc2cc(C)nc(C(C)(F)F)n2)c(OCC(C)OC(C)(C)C)cn1 (centres unmarked) [Example 427, N-(5-(2-(tert-butoxy)propoxy)-4-((2-(1,1-difluoroethyl)-6-methylpyrimidin-4-yl)amino)pyridin-2-yl)acetamide]
[1]
  IC50: ≤ 10 nM
[2]
  IC50: 10 to 100 nM

## CC(=O)Nc1cc(Nc2cc(C)nc(C(C)(F)F)n2)c(OCC(F)C(C)C)cn1 (centres unmarked) [Example 429, N-(4-((2-(1,1-difluoroethyl)-6-methylpyrimidin-4-yl)amino)-5-(2-fluoro-3-methylbutoxy)pyridin-2-yl)acetamide]
[1]
  IC50: ≤ 10 nM
[2]
  IC50: 10 to 100 nM

## CC(=O)Nc1cc(Nc2cc(C)nc(C(C)(F)F)n2)c(OCC2(C)CCOC2)cn1 (centres unmarked) [Example 431, N-(4-((2-(1,1-difluoroethyl)-6-methylpyrimidin-4-yl)amino)-5-((3-methyltetrahydrofuran-3-yl)methoxy)pyridin-2-yl)acetamide]
[1]
  IC50: ≤ 10 nM
[2]
  IC50: 100 to 1000 nM

## CC(=O)Nc1cc(Nc2cc(C)nc(C(C)(F)F)n2)c(OCC2CC23CCOC3)cn1 (centres unmarked) [Example 432, N-(5-((5-oxaspiro[2.4]heptan-1-yl)methoxy)-4-((2-(1,1-difluoroethyl)-6-methylpyrimidin-4-yl)amino)pyridin-2-yl)acetamide]
[1]
  IC50: ≤ 10 nM
[2]
  IC50: 10 to 100 nM

## CC(=O)Nc1cc(Nc2cc(C)nc(C(C)(F)F)n2)c(OCC2CC3(CCC3)CO2)cn1 (centres unmarked) [Example 433, N-(5-((6-oxaspiro[3.4]octan-7-yl)methoxy)-4-((2-(1,1-difluoroethyl)-6-methylpyrimidin-4-yl)amino)pyridin-2-yl)acetamide]
[1]
  IC50: ≤ 10 nM
[2]
  IC50: ≤ 10 nM

## CC(=O)Nc1cc(Nc2cc(C)nc(C(C)(F)F)n2)c(OCCCC2CCCO2)cn1 (centres unmarked) [Example 434, N-(4-((2-(1,1-difluoroethyl)-6-methylpyrimidin-4-yl)amino)-5-(3-(tetrahydrofuran-2-yl)propoxy)pyridin-2-yl)acetamide]
[1]
  IC50: ≤ 10 nM
[2]
  IC50: 10 to 100 nM

## COc1cnc(NC(C)=O)cc1Nc1nc(C)cc(C(F)(F)F)n1 [Example 436, N-(5-methoxy-4-((4-methyl-6-(trifluoromethyl)pyrimidin-2-yl)amino)pyridin-2-yl)acetamide]
[1]
  IC50: 100 to 1000 nM
[2]
  IC50: ≥ 1000 nM

## COCCOc1cnc(NC(C)=O)cc1Nc1cncc(C(C)(C)F)n1 [Example 439, N-(4-((6-(2-fluoropropan-2-yl)pyrazin-2-yl)amino)-5-(2-methoxyethoxy)pyridin-2-yl)acetamide]
[1]
  IC50: ≤ 10 nM
[2]
  IC50: 10 to 100 nM

## COCC(C)COc1cnc(NC(C)=O)cc1Nc1cc(C)nc(C(C)(F)F)n1 (centres unmarked) [Example 440, N-(4-((2-(1,1-difluoroethyl)-6-methylpyrimidin-4-yl)amino)-5-(3-methoxy-2-methylpropoxy)pyridin-2-yl)acetamide]
[1]
  IC50: ≤ 10 nM
[2]
  IC50: 10 to 100 nM

## COCCOc1cnc(NC(C)=O)cc1Nc1nc(C)cc(C(C)(C)F)n1 [Example 441, N-(4-((4-(2-fluoropropan-2-yl)-6-methylpyrimidin-2-yl)amino)-5-(2-methoxyethoxy)pyridin-2-yl)acetamide]
[1]
  IC50: ≤ 10 nM
[2]
  IC50: 100 to 1000 nM

## CC(=O)Nc1cc(Nc2cc(C)nc(C(C)(F)F)n2)c(OCC2COCC3(CCC3)O2)cn1 (centres unmarked) [Example 443, N-(5-((5,8-dioxaspiro[3.5]nonan-6-yl)methoxy)-4-((2-(1,1-difluoroethyl)-6-methylpyrimidin-4-yl)amino)pyridin-2-yl)acetamide]
[1]
  IC50: ≤ 10 nM
[2]
  IC50: 10 to 100 nM

## CC(=O)Nc1cc(Nc2cc(C)nc(C(C)(F)F)n2)c(OCCC(C)F)cn1 (centres unmarked) [Example 444, N-(4-((2-(1,1-difluoroethyl)-6-methylpyrimidin-4-yl)amino)-5-(3-fluorobutoxy)pyridin-2-yl)acetamide]
[1]
  IC50: ≤ 10 nM
[2]
  IC50: 10 to 100 nM

## COC(=O)Nc1cc(Nc2cc(OC3CC3)nc(C(C)(F)F)n2)c(OCCN(C)C)cn1 [Example 447, methyl (4-((6-cyclopropoxy-2-(1,1-difluoroethyl)pyrimidin-4-yl)amino)-5-(2-(dimethylamino)ethoxy)pyridin-2-yl)carbamate]
[1]
  IC50: ≤ 10 nM
[2]
  IC50: 10 to 100 nM

## COc1cnc(NC(C)=O)cc1Nc1cc(C)nc(C23COC(C2)C3)n1 [Example 448, N-(4-((2-(2-oxabicyclo[2.1.1]hexan-4-yl)-6-methylpyrimidin-4-yl)amino)-5-methoxypyridin-2-yl)acetamide]
[1]
  IC50: 10 to 100 nM
[2]
  IC50: 100 to 1000 nM

## COc1cnc(NC(C)=O)cc1Nc1cc(C)nc(C23COC(C)(C2)C3)n1 [Example 449, N-(5-methoxy-4-((6-methyl-2-(1-methyl-2-oxabicyclo[2.1.1]hexan-4-yl)pyrimidin-4-yl)amino)pyridin-2-yl)acetamide]
[1]
  IC50: 100 to 1000 nM
[2]
  IC50: ≥ 1000 nM

## COc1cnc(NC(C)=O)cc1Nc1ccnc(C2CCOC2)n1 (centres unmarked) [Example 450, N-(5-methoxy-4-((2-(tetrahydrofuran-3-yl)pyrimidin-4-yl)amino)pyridin-2-yl)acetamide]
[1]
  IC50: 10 to 100 nM
[2]
  IC50: ≥ 1000 nM

## COc1cnc(NC(C)=O)cc1Nc1cc(C)nc(C2CCOC2)n1 (centres unmarked) [Example 451, N-(5-methoxy-4-((6-methyl-2-(tetrahydrofuran-3-yl)pyrimidin-4-yl)amino)pyridin-2-yl)acetamide]
[1]
  IC50: 10 to 100 nM
[2]
  IC50: ≥ 1000 nM

## COc1cnc(NC(C)=O)cc1Nc1cc(OC2CCC2)nc(C(C)(F)F)n1 [Example 455, N-(4-((6-cyclobutoxy-2-(1,1-difluoroethyl)pyrimidin-4-yl)amino)-5-methoxypyridin-2-yl)acetamide trifluoroacetate]
[1]
  IC50: ≤ 10 nM
[2]
  IC50: ≤ 10 nM

## COc1cnc(NC(C)=O)cc1Nc1cc(OC2CC(C#N)C2)nc(C(C)(F)F)n1 (centres unmarked) [Example 456, N-(4-((6-(3-cyanocyclobutoxy)-2-(1,1-difluoroethyl)pyrimidin-4-yl)amino)-5-methoxypyridin-2-yl)acetamide]
[1]
  IC50: ≤ 10 nM
[2]
  IC50: 10 to 100 nM
